According to patent US9045505B2, “Nitric oxide donors” (University of Otago, priority 2006, dated 2015):

Biological target: T1, cytochrome c oxidase (Rattus norvegicus, UniProt P05503)
T1 construct: from tissue; host or cells: rat liver mitochondria
Assay: NO generation and respiration in isolated liver mitochondria (NO and O2 electrodes)
Type: biochemical
Conditions: succinate
Protocol: FIG. 9 is a series of traces and graphs showing membrane potential-dependent MitoSNAP mitochondrial uptake and NO^• generation. (a-d) Liver mitochondria were incubated in KCl medium supplemented with rotenone in a stirred 3 ml chamber and electrodes were used to measure the concentrations of O2 and NO^• simultaneously. Where indicated succinate (10 mM), OxyHb (5 μM) or FCCP (500 nM) were added. For (a) and (b) 2 mg mitochondrial protein/ml and 20 μM MitoSNAP (a) or SNAP (b) were used. For (c) and (d) 0.5 mg mitochondrial protein/ml and 5 μM MitoSNAP were used. There was no effect of 5 μM MitoNAP on respiration or NO^• production. All traces are from typical experiments repeated at least twice. (e-f) Mitochondria (1 mg protein) were incubated in 1 ml KCl medium without neocuproine or DTPA, supplemented with rotenone and succinate in the absence (e) or presence (f) of FCCP (500 nM). Mitochondria were then pelleted by centrifugation (10,000×g) then aliquots of the supernatant (700 μl) were mixed with 700 μl 0.1% TFA and analyzed by RP-HPLC. The amount of MitoSNAP and MitoNAP were calculated as the percentage of their peak areas relative to the sum of both peak areas.
Nitrite, nitric oxide and S-nitrosothiol measurements. Nitrite was analyzed by the Griess assay (Molecular Probes). Nitric oxide was measured using an NO^• electrode (World Precision Instruments Ltd, UK) connected to an Apollo 4000 Free Radical Analyser. The electrode was inserted into a stirred, sealed 3 ml chamber with a Clark type O2 electrode (Rank Brothers, UK) built into its base and was thermostatted at 37° C. The NO^• electrode was calibrated by adding SNAP to argon-purged, saturated CuCl. OxyHb was prepared by reduction of bovine methemoglobin with sodium dithionite. Protein S-nitrosothiols were measured using a chemiluminescence assay in an EcoMedics CLD 88 Exhalyzer (Annex, Herts, UK) (Feelisch, M. et al. Concomitant S—, N—, and heme-nitros(yl)ation in biological tissues and fluids: implications for the fate of NO in vivo. FASEB. J. 16, 1775-85 (2002)).
Mitochondrial incubations were usually in KCl buffer (120 mM KCl, 10 mM HEPES, 1 mM EGTA, 100 μM N,N-bis(2-bis[carboxymethyl]aminoethyl) glycine (DTPA) and 10 μM neocuproine, pH 7.2) with 10 mM succinate and 4 μg/ml rotenone in the dark at 37° C., unless stated otherwise. An electrode selective for the TPP moiety of MitoSNAP and MitoNAP was made and used as described previously (Asin-Cayuela, J., Manas, A. R., James, A. M., Smith, R. A. & Murphy, M. P. Fine-tuning the hydrophobicity of a mitochondria-targeted antioxidant. FEBS Letts. 571, 9-16 (2004)). Respiration rates were measured in a Clark type O2 electrode (Rank Brothers, UK). To measure GSH and GSSG, mitochondria (1 mg protein/ml) were incubated with 0-10 μM MitoSNO1 or MitoNAP for 10 min, pelleted by centrifugation and the GSH and GSSG contents assessed by the recycling assay (Scarlett, J. L., Packer, M. A., Porteous, C. M. & Murphy, M. P. Alterations to glutathione and nicotinamide nucleotides during the mitochondrial permeability transition induced by peroxynitrite. Biochem. Pharmacol. 52, 1047-1055 (1996)). The measurement of exposed mitochondrial protein thiols is described below.
Following its accumulation within mitochondria MitoSNAP interacted with the GSH-rich matrix to release NO^• which then affected respiration by competitively inhibiting O2 consumption at cytochrome c oxidase. […] Mitochondria were incubated with the complex I inhibitor rotenone in the absence of substrate to prevent Δψ generation, and addition of 20 μM MitoSNAP produced a small amount of NO^•, presumably due to MitoSNAP diffusion into the mitochondrial matrix and reaction with GSH (FIG. 9a).
To explore further the Δψ-dependence of NO^• production by MitoSNAP, studies with decreased concentrations (5 μM) and fewer mitochondria (0.5 mg protein/ml) were undertaken (FIGS. 9c & d). […]

[1] = 20 μM, 2 mg mitochondrial protein/ml
[2] = 5 μM, 0.5 mg mitochondrial protein/ml

| Compound | NO production by energized mitochondria [1] | effect on respiration [1] | NO production by energized mitochondria [2] | effect on respiration [2] |
| --- | --- | --- | --- | --- |
| CC(=O)NC(C(=O)O)C(C)(C)SN=O (racemic) [SNAP, S-nitroso-N-acetyl-DL-penicillamine, reference compound] | negligible | did not affect respiration | – | – |
| CC(=O)NC(C(=O)NCCCCC[P+](c1ccccc1)(c1ccccc1)c1ccccc1)C(C)(C)SN=O.CS(=O)(=O)[O-] (stereo not drawn) [MitoSNAP, [5-(2-acetylamino-3-methyl-3-nitrosothio-butyrylamino)-penty1]-triphenylphosphonium methanesulfonate] | rapid increase in NO^• production | respiration rate slowed | dramatic increase in NO^• production | decreased respiration |
